Where “and” joins values, the source holds several entries; their conditions need not be identical. Equal values may be shown once. Read-outs that look alike come from different tables or passages of the source.
Experiments:
[1] = test system: treatment naïve B cell lymphoma; experiment: Phase 2 veterinary clinical trial, RECIST 1.1 tumour response; format: in vivo, dog
Experimental: Superficial tumour lesions were measured with calipers, while lesions within the body were assessed by X-Ray, ultrasound, computer tomography (CT) and/or physical palpitation. Baseline Day 0 (D0) predose caliper, X-Ray, ultrasound and CT measurements where available as well as a complete physical examination were recorded.

SARS-CoV-2 [2] = format: cell-based; settings: 0.032 μM and 0.064 μM compared to 40 μM and 8 μM values, p<0.05 and <0.001
VERO cells [3] = test system: VERO cells
[4] = test system: VERO cells infected with SARS-CoV-2; format: cell-based; settings: approximately 5 μM MPL
VERO cells [5] = experiment: cells; settings: Chlorocebus sabaeus, 120 h, read-out: 1050 (estimated from the 8 μM and 40 μM values)
[6] = Blood plasma levels in pet dogs of the veterinary trial; format: in vivo, dog; settings: plasma, oral, 179 mg/kg bw; dog 003-001 that achieved a partial response; read-out: monepantel blood plasma level
Experimental: In a Phase 2 veterinary clinical trial, monepantel was administered as tablets daily to six pet dog patients (dog identification numbers: 001-001, 001-002, 001-003, 003-001, 004-002 and 004-003) with treatment naïve B cell lymphoma at a target dose of 179 mg/kg bw. Superficial tumour lesions were measured with calipers, while lesions within the body were assessed by X-Ray, ultrasound, computer tomography (CT) and/or physical palpitation. Baseline Day 0 (D0) predose caliper, X-Ray, ultrasound and CT measurements where available as well as a complete physical examination were recorded.
An inverse correlation between RECIST1.1 response and blood plasma levels of monepantel and monepantel sulfone was evident. The one dog (003-001) that achieved a partial response, recorded monepantel and […] of 0.1 and 6.7 μM, respectively.

[7] = test system: eurkaryotic translation initiation factor 4E-binding protein 1 (EIF-4EBP1); experiment: EIF-4EBP1 phosphorylation levels in patients' PBMCs (mTOR signalling); format: in vivo, human; settings: 5 mg/kg bw daily
Experimental: (§1) In a Phase 1 b clinical trial, monepantel administered as Zolvix daily to four human patients (PA02, PA04, PA06 and PA07) at 5 mg/kg bw provided an anticancer effect by computerised tomography (CT) scanning according to RECIST1.1 criteria. […] Evidence of mTOR pathway signalling inhibition in these patients was supported by the finding of decreased eurkaryotic translation initiation factor 4E-binding protein 1 (EIF-4EBP1) phosphorylation levels from the preparations of PBMCs from PA02, PA04 and PA06 (FIG. 1B). EIF-4EIBP1 phosphorylation levels were not assayed from preparations of PBMCs from PA07.

SARS-CoV-2 [8] = format: cell-based; settings: VERO cells
cancer = experiment: Phase 1b clinical trial, RECIST1.1 by computerised tomography; format: in vivo, human; settings: monepantel as Zolvix daily 5 mg/kg bw
Experimental: as §1

[9] = test system: ribosomal protein S6 kinase beta-1 (RPS6KB1); experiment: RPS6KB1 phosphorylation levels in patients' PBMCs (mTOR signalling); format: in vivo, human; settings: 5 mg/kg bw daily
SARS-CoV-2 [10] = format: cell-based; settings: Calu-3 human cells, concentrations from 3.00 μM down to 0.013 μM
[11] = Blood plasma levels in human patients; format: in vivo; settings: monepantel as Zolvix 5 mg/kg bw daily
Experimental: as §1
Blood plasma monepantel and monepantel sulfone levels of all four patients were recorded at intervals throughout treatment (Table 2).

[12] = pet dogs, monepantel tablets daily, target dose 179 mg/kg bw, one value per dog, 179 mg/kg
[13] = six pet dogs, tablets daily, 179 mg/kg bw
[14] = PA02, after three days of treatment
[15] = PA04, after three days of treatment
[16] = PA06, after three days of treatment

With `C[C@](C#N)(COc1cc(C#N)ccc1C(F)(F)F)NC(=O)c1ccc(SC(F)(F)F)cc1` [MPL, N-[(1S)-1-Cyano-2-(5-cyano-2-trifluoromethyl-phenoxy)-1-methyl-ethyl]-4-trifluoromethylsulfanyl-benzamide] the “RECIST 1.1 tumour response D14 Target Lesions” value [1, 12] was “PR (PR = partial response)”, the “RECIST 1.1 tumour response Overall” value [1, 12] was “PR (PR = partial response)” and the “target superficial lymph node caliper measurements at D28” value ([1]; pet dogs, tablets daily, 179 mg/kg bw) was “four of four dogs achieving stable target superficial lymph node caliper measurements”. The “RECIST 1.1 responses of the six dogs at D14” value [1, 13] was “One dog achieved a partial response, four dogs achieved stable disease and one dog had progressive disease”, the “anti-cancer effect at D14” value [1, 13] was “strong anti-cancer effect” and the “SARS-CoV-2 RNA concentrations in the media (qPCR)” value (SARS-CoV-2 [2]) was “significantly decrease”. The “effect upon SARS-CoV-2 infected VERO cells (LDH)” value (VERO cells [3]) was “no apparent effect”, the “toxicity caused by SARS-CoV-2” value (VERO cells [3]) was “appeared to increase toxicity” and the “toxicity to Vero cells (LDH)” value (VERO cells [3]) was “significant toxicity”. For the same molecule, the “toxicity to uninfected VERO cells” value (VERO cells [3]) was “some toxicity”, the SARS-CoV-2 toxicity (VERO cells [3]; African green monkey) was “does not apparently increase SARS-CoV-2 toxicity” and the “protection against cell death following infection with SARS-CoV-2” value [4] was “protected VERO cell against cell death”. For the same molecule, the IC50 (VERO cells [5]) was roughly 30 µM, the concentration at 14 day [6] was 100 nM and the “reduction of PBMC EIF-4EBP1 phosphorylation levels relative to pre-treatment” value ([7]; PA02, after seven days of treatment) was 85.6%. The “reduction of PBMC EIF-4EBP1 phosphorylation levels relative to pre-treatment” value [7, 14] was 38.5%, the “reduction of PBMC EIF-4EBP1 phosphorylation levels relative to pre-treatment” value [7, 15] was 96.6% and the “reduction of PBMC EIF-4EBP1 phosphorylation levels relative to pre-treatment” value [7, 16] was 34.4%. For the same molecule, the “SARS-CoV-2 infectivity (TCID50) compared to no treatment” value (SARS-CoV-2 [8]; MPL 0.064 μM) was “significantly reduces SARS-CoV-2 infectivity”, the “SARS-CoV-2 infectivity (TCID50, repeat experiment) compared to no treatment” value (SARS-CoV-2 [8]; MPL 0.137 μM (greatest effect)) was “significantly reduces SARS-CoV-2 infectivity” and the “SARS-CoV-2 infectivity (TCID50, repeat experiment)” value (SARS-CoV-2 [8]; MPL 0.411 μM and 0.046 μM) was “significantly reduced SARS-CoV-2 infectivity”. The “SARS-CoV-2 infectivity (TCID50)” value (SARS-CoV-2 [8]; MPL 0.32, 1.6 and 8.0 μM) was “did not significantly reduce”, the “RECIST1.1 response by CT” value (cancer; patient PA07) was “progressive disease” and the “RECIST1.1 response by CT” value (cancer; patients PA02, PA04 and PA06) was “stable disease”. The “reduction of PBMC RPS6KB1 phosphorylation levels relative to pre-treatment” value ([9]; PA02, PA06 and PA07, after seven days of treatment) was 85.6%, the “reduction of PBMC RPS6KB1 phosphorylation levels relative to pre-treatment” value [9, 14] was 27.3% and the “reduction of PBMC RPS6KB1 phosphorylation levels relative to pre-treatment” value [9, 15] was 28.6%. The “reduction of PBMC RPS6KB1 phosphorylation levels relative to pre-treatment” value [9, 16] was 81.2%, the “mTOR signalling (decreased RPS6KB1 phosphorylation in PBMCs)” value ([9]; four patients) was “inhibited in all four patients” and the “SARS-CoV-2 infectivity (TCID50)” value (SARS-CoV-2 [10]) was “reduced SARS-CoV-2 infectivity”. The “Blood plasma level of monepantel, Average” value (“Blood plasma level … Average” below) ([11]; 0.25 h, average of patients) was 0.010 ∞M, the “Blood plasma level of monepantel” value ([11]; 0.25 h, individual patients) was 6.46 ng/ml and 0 ng/ml (2×) and 12.2 ng/ml and the “Blood plasma level … Average” value ([11]; 0.5 h, average of patients) was 0.051 ∞M. The “Blood plasma level of monepantel” value ([11]; 0.5 h, individual patients) was 39.4 ng/mL and 16.1 ng/mL and 10.5 ng/mL and 31 ng/mL, the “Blood plasma level … Average” value ([11]; 1 h, average of patients) was 0.137 ∞M and the “Blood plasma level of monepantel” value ([11]; 1 h, individual patients) was 110 ng/mL and 46.2 ng/mL and 42.1 ng/mL and 61 ng/mL. For the same molecule, the “Blood plasma level … Average” value ([11]; 2 h, average of patients) was 0.298 ∞M, the “Blood plasma level of monepantel” value ([11]; 2 h, individual patients) was 99.1 ng/mL and 171 ng/mL and 112 ng/mL and the “Blood plasma level … Average” value ([11]; 4 h, average of patients) was 0.353 ∞M. The “Blood plasma level of monepantel” value ([11]; 4 h, individual patients) was 104 ng/mL and 234 ng/mL and 144 ng/mL and 187 ng/mL, the “Blood plasma level … Average” value ([11]; 8 h, average of patients) was 0.145 ∞M and the “Blood plasma level of monepantel” value ([11]; 8 h, individual patients) was 62.1 ng/mL and 63.6 ng/mL and 108 ng/mL and 40.2 ng/mL. The “Blood plasma level … Average” value ([11]; 12 h, average of patients) was 0.064 ∞M, the “Blood plasma level of monepantel” value ([11]; 12 h, individual patients) was 26.9 ng/mL and 24.1 ng/mL and 52.5 ng/mL and 18.6 ng/mL and the “Blood plasma level … Average” value ([11]; 24 h, average of patients) was 0.030 ∞M. The “Blood plasma level of monepantel” value ([11]; 24 h, individual patients) was 13.7 ng/mL and 11.6 ng/mL and 21.8 ng/mL and 9.95 ng/mL, the “Blood plasma level … Average” value ([11]; pre-dose D3, average of patients) was 10.7 ng/ml and 0.023 ∞M and the “Blood plasma level of monepantel” value ([11]; pre-dose D3, individual patients) was 16.4 ng/mL and 8.07 ng/mL and 9.99 ng/mL and 8.33 ng/mL. The “Blood plasma level … Average” value ([11]; pre-dose D4, average of patients) was 9.2 ng/ml and 0.019 ∞M, the “Blood plasma level of monepantel” value ([11]; pre-dose D4, individual patients) was 14.7 ng/mL and 6.98 ng/mL and 8.65 ng/mL and 6.44 ng/mL and the “Blood plasma level … Average” value ([11]; pre-dose D5, average of patients) was 6.9 ng/ml and 0.015 ∞M. For the same molecule, the “Blood plasma level of monepantel” value ([11]; pre-dose D5, individual patients) was 9.94 ng/mL and 6.86 ng/mL and 5.72 ng/mL and 5.03 ng/mL, the “Blood plasma level … Average” value ([11]; pre-dose D6, average of patients) was 6.3 ng/ml and 0.013 ∞M and the “Blood plasma level of monepantel” value ([11]; pre-dose D6, individual patients) was 9.99 ng/mL and 7.22 ng/mL and 4.62 ng/mL and 3.34 ng/mL. The “Blood plasma level … Average” value ([11]; pre-dose D7, average of patients) was 5.4 ng/ml and 0.011 ∞M, the “Blood plasma level of monepantel” value ([11]; pre-dose D7, individual patients) was 7.42 ng/mL and 6.39 ng/mL and 4.58 ng/mL and 3.32 ng/mL and the “Blood plasma level … Average” value ([11]; pre-dose D14, average of patients) was 4.4 ng/ml and 0.009 ∞M. For the same molecule, the “Blood plasma level of monepantel” value ([11]; pre-dose D14, individual patients) was 4.85 ng/mL and 5.25 ng/mL and 3.23 ng/mL, the “Blood plasma level … Average” value ([11]; pre-dose D21, average of patients) was 3.8 ng/ml and 0.008 ∞M and the “Blood plasma level of monepantel” value ([11]; pre-dose D21, individual patients) was 4.34 ng/mL and 3.16 ng/mL. The “Blood plasma level … Average” value ([11]; pre-dose D28, average of patients) was 3.8 ng/ml and 0.008 ∞M, the “Blood plasma level of monepantel” value ([11]; pre-dose D28, individual patients) was 4.65 ng/mL and 2.96 ng/mL and the concentration at 0.25 h ([11]; plasma, oral, 5 mg/kg bw, 0.25 h, average of patients, read-out: Blood plasma level of monepantel, Average) was 4.7 ng/mL. It also gave a concentration at 0.5 h ([11]; plasma, oral, 5 mg/kg bw, 0.5 h, average of patients, read-out: Blood plasma level of monepantel, Average) of 24.3 ng/mL, a concentration at 1 h ([11]; plasma, oral, 5 mg/kg bw, 1 h, average of patients, read-out: Blood plasma level of monepantel, Average) of 64.8 ng/mL and a concentration at 2 h ([11]; plasma, oral, 5 mg/kg bw, 2 h, average of patients, read-out: Blood plasma level of monepantel, Average) of 141 ng/mL. It also gave a concentration at 2 h ([11]; plasma, oral, 5 mg/kg bw, 2 h, individual patients, read-out: Blood plasma level of monepantel) of 183 ng/mL, a concentration at 4 h ([11]; plasma, oral, 5 mg/kg bw, 4 h, average of patients, read-out: Blood plasma level of monepantel, Average) of 167 ng/mL and a concentration at 8 h ([11]; plasma, oral, 5 mg/kg bw, 8 h, average of patients, read-out: Blood plasma level of monepantel, Average) of 68.5 ng/mL. For the same molecule, the concentration at 12 h ([11]; plasma, oral, 5 mg/kg bw, 12 h, average of patients, read-out: Blood plasma level of monepantel, Average) was 30.5 ng/mL and the concentration at 24 h ([11]; plasma, oral, 5 mg/kg bw, 24 h, average of patients, read-out: Blood plasma level of monepantel, Average) was 14.3 ng/mL.

— patent US12213957B2, “Use of aminoacetonitrile compounds for the treatment of infection and disease” (PITNEY PHARMACEUTICALS PTY LIMITED, priority 2020, dated 2025)
